From ChEMBL document CHEMBL1144765, “Des-A-ring benzothiadiazines: inhibitors of HCV genotype 1 NS5B RNA-dependent RNA polymerase” (Bioorg Med Chem Lett, 2008)

Legend:
Experiment in all cases: microbe, parasite or virus in culture
Hepatitis C virus [1] = settings: subtype 1a
Description: Antiviral activity against HCV 1a by replicon based assay

Hepatitis C virus [2] = settings: genotype 1b
Description: Antiviral activity against HCV 1b by replicon based assay

Hepatitis C virus [3] = settings: genotype 1b; remark: listed apart in the source
Description: Antiviral activity against HCV 1b in presence of 5% fetal calf serum by replicon based assay

Hepatitis C virus [4] = settings: genotype 1b; remark: listed apart in the source
Description: Antiviral activity against HCV 1b in presence of 40% human serum by replicon based assay

Row | EC50 (Hepatitis C virus [1]) [nM] | EC50 (Hepatitis C virus [2]) [nM] | EC50 (Hepatitis C virus [3]) [nM] | EC50 (Hepatitis C virus [4]) [nM] | SMILES
1 | 16 | 2 | 2 | 736 | CC(C)CCn1c(=O)c(C2=NS(=O)(=O)c3cc(NS(C)(=O)=O)ccc3N2)c(O)c2cccnc21
2 | – | – | 5.6 | 38.2 | C/C=C/c1cn(CCC(C)C)c(=O)c(C2=NS(=O)(=O)c3cc(NS(C)(=O)=O)ccc3N2)c1O
3 | – | – | 163 | 911 | CC(C)CCn1ccc(O)c(C2=NS(=O)(=O)c3cc(NS(C)(=O)=O)ccc3N2)c1=O
4 | – | – | 8.8 | 62.5 | C=Cc1cn(CCC(C)C)c(=O)c(C2=NS(=O)(=O)c3cc(NS(C)(=O)=O)ccc3N2)c1O
